pIC50: −log10 of the molar value. Where “and” joins values, the source holds several entries; their conditions need not be identical. Equal values may be shown once.
Tests used:
[1] = target: T1, Bromodomain-containing protein 4 (Homo sapiens, UniProt O60885); experiment: Alphascreen assay. Binding to BRD4A (domain start/stop: N44-E168) by alphascreen assay
[2] = target: Bromodomain adjacent to zinc finger domain protein 2B (Homo sapiens) (UniProt Q9UIF8); experiment: Alphascreen assay. Domain start/stop: S1858-S1972; settings: Compound concentration 25.0 uM, Protein concentration 25.0 uM
[3] = target: Bromodomain-containing protein 3 (Homo sapiens) (UniProt Q15059); experiment: Thermal Shift Assay. Domain start/stop: P24-E144; settings: Compound concentration 10.0 uM, Protein concentration 2.0 uM
[4] = target: Histone acetyltransferase p300 (Homo sapiens) (UniProt Q09472); experiment: Thermal Shift Assay. Domain start/stop: A1040-S1171; settings: Compound concentration 10.0 uM, Protein concentration 2.0 uM
[5] = target: Protein polybromo-1 (Homo sapiens) (UniProt Q86U86); experiment: Thermal Shift Assay. Domain start/stop: H23-D159; settings: Compound concentration 10.0 uM, Protein concentration 2.0 uM
Protein polybromo-1 (Homo sapiens), sequence (Q86U86 whole entry): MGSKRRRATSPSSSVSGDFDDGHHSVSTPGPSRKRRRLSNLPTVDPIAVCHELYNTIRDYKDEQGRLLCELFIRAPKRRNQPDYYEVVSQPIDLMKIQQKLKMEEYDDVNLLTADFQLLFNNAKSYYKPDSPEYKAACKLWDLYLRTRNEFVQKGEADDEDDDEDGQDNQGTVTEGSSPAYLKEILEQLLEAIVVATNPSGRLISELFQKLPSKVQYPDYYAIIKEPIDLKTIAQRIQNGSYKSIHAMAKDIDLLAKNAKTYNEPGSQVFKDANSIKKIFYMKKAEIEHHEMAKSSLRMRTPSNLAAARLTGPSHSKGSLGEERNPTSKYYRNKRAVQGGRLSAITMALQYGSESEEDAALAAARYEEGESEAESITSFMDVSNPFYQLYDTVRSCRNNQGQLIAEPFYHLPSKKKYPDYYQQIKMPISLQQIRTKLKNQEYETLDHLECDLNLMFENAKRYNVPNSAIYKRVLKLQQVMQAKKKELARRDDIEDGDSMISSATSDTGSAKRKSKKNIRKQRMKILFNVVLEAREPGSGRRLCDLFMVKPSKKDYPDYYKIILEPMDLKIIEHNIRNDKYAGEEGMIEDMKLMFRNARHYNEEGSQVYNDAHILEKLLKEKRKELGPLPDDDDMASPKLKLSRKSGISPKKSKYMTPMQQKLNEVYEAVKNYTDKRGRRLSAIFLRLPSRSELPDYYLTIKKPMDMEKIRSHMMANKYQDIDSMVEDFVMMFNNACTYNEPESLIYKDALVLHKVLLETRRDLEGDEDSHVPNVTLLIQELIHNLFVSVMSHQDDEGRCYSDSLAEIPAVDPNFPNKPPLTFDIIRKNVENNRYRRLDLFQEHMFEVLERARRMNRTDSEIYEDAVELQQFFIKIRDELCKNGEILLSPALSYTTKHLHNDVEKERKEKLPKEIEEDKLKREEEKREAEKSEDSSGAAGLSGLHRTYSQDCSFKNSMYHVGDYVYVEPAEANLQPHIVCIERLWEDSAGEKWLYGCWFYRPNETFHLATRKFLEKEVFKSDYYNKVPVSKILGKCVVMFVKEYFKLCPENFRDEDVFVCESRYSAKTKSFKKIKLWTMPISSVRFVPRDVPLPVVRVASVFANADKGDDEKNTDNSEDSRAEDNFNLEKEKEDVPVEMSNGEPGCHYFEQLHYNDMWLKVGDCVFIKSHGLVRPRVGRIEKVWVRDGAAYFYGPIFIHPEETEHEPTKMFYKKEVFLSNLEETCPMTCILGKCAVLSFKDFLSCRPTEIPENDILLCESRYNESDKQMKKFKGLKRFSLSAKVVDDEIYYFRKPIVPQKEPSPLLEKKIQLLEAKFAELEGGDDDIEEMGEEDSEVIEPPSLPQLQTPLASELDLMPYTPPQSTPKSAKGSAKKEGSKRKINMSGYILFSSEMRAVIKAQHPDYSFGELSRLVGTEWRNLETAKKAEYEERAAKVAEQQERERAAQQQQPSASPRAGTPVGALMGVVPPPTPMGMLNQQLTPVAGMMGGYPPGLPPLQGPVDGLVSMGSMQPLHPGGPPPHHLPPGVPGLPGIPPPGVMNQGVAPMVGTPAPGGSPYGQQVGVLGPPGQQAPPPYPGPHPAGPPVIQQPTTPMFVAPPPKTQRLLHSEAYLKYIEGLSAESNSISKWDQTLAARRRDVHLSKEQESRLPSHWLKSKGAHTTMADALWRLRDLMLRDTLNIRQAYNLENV

[6] = target: Protein polybromo-1 (Homo sapiens) (UniProt Q86U86); experiment: Thermal Shift Assay. Domain start/stop: R487-D598; settings: Compound concentration 10.0 uM, Protein concentration 2.0 uM
[7] = target: Tripartite motif-containing protein 66 (Homo sapiens) (UniProt O15016); experiment: Thermal Shift Assay. Domain start/stop: M1091-S1218; settings: Compound concentration 10.0 uM, Protein concentration 2.0 uM
[8] = target: ATPase family AAA domain-containing protein 2 (Homo sapiens) (UniProt Q6PL18); settings: Compound concentration 25.0 uM, Protein concentration 200.0 uM
Description: Alphascreen assay. Domain start/stop: Q981-R1108

[9] = target: Chromatin remodeling regulator CECR2 (Homo sapiens) (UniProt Q9BXF3); settings: Compound concentration 20.0 uM, Protein concentration 12.5 uM
Chromatin remodeling regulator CECR2 (Homo sapiens), sequence (Q9BXF3 whole entry, looked up): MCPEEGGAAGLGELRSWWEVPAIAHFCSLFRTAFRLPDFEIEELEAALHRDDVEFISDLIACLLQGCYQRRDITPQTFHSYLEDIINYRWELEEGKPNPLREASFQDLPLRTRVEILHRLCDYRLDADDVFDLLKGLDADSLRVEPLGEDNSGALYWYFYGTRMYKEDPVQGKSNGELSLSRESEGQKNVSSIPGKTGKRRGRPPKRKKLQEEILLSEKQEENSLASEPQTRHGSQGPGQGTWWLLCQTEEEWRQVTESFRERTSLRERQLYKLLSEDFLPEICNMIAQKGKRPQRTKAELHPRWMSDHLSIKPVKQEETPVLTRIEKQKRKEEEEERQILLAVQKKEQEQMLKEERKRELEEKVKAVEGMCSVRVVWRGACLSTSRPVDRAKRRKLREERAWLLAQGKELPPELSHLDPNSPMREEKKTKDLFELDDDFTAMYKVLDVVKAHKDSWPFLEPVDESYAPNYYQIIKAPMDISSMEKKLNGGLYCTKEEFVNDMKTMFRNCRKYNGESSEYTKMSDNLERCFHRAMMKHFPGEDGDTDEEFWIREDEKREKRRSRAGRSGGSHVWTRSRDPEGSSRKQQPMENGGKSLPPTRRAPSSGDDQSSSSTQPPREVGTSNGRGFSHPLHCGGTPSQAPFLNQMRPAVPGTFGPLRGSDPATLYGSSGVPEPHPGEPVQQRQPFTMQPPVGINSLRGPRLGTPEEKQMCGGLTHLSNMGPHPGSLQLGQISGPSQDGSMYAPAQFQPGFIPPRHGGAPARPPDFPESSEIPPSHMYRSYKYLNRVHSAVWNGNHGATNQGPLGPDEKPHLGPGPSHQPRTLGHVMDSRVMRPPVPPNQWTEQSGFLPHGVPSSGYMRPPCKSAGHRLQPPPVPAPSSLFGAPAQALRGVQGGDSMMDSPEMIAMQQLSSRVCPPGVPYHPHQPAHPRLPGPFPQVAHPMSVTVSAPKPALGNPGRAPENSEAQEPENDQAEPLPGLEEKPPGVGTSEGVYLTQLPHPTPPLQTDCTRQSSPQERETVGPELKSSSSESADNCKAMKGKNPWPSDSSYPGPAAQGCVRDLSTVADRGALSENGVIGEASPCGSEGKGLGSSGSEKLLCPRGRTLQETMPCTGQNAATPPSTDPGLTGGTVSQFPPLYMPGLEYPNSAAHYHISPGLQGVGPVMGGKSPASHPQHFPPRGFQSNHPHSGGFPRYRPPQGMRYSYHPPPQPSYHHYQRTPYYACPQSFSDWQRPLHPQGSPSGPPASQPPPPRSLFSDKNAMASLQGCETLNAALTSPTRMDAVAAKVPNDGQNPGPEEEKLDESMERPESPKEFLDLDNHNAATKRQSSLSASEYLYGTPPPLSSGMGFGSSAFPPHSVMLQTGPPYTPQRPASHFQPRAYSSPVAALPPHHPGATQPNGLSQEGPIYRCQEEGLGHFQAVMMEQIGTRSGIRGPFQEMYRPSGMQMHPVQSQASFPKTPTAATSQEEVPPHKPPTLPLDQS

[10] = target: PH-interacting protein (Homo sapiens) (UniProt Q8WWQ0); settings: Compound concentration 50.0 uM, Protein concentration 0.025 uM
[11] = target: Histone-lysine N-methyltransferase ASH1L (Homo sapiens) (UniProt Q9NR48); settings: Compound concentration 10.0 uM, Protein concentration 2.0 uM
[12] = target: ATPase family AAA domain-containing protein 2 (Homo sapiens) (UniProt Q6PL18); settings: Compound concentration 10.0 uM, Protein concentration 2.0 uM
[13] = target: ATPase family AAA domain-containing protein 2B (Homo sapiens) (UniProt Q9ULI0); settings: Compound concentration 10.0 uM, Protein concentration 2.0 uM
[14] = target: Bromodomain adjacent to zinc finger domain protein 1A (Homo sapiens) (UniProt Q9NRL2); settings: Compound concentration 10.0 uM, Protein concentration 2.0 uM
[15] = target: Bromodomain adjacent to zinc finger domain protein 2A (Homo sapiens) (UniProt Q9UIF9); settings: Compound concentration 10.0 uM, Protein concentration 2.0 uM
[16] = target: Bromodomain adjacent to zinc finger domain protein 2B (Homo sapiens) (UniProt Q9UIF8); settings: Compound concentration 10.0 uM, Protein concentration 2.0 uM
[17] = target: Nucleosome-remodeling factor subunit BPTF (Homo sapiens) (UniProt Q12830); settings: Compound concentration 10.0 uM, Protein concentration 2.0 uM
[18] = target: Bromodomain-containing protein 1 (Homo sapiens) (UniProt O95696); settings: Compound concentration 10.0 uM, Protein concentration 2.0 uM
[19] = target: Bromodomain-containing protein 2 (Homo sapiens) (UniProt P25440); settings: Compound concentration 10.0 uM, Protein concentration 2.0 uM
[20] = target: Bromodomain-containing protein 2 (Homo sapiens) (UniProt P25440); settings: Compound concentration 10.0 uM, Protein concentration 2.0 uM; remark: listed apart in the source
[21] = target: Bromodomain-containing protein 3 (Homo sapiens) (UniProt Q15059); settings: Compound concentration 10.0 uM, Protein concentration 2.0 uM
[22] = target: T1, Bromodomain-containing protein 4; settings: Compound concentration 10.0 uM, Protein concentration 2.0 uM
[23] = target: Bromodomain-containing protein 9 (Homo sapiens) (UniProt Q9H8M2); settings: Compound concentration 10.0 uM, Protein concentration 2.0 uM
[24] = target: Bromodomain testis-specific protein (Homo sapiens) (UniProt Q58F21); settings: Compound concentration 10.0 uM, Protein concentration 2.0 uM
[25] = target: Bromodomain testis-specific protein (Homo sapiens) (UniProt Q58F21); settings: Compound concentration 10.0 uM, Protein concentration 2.0 uM; remark: listed apart in the source
Peregrin (Homo sapiens) [26] = target: Peregrin (Homo sapiens) (UniProt P55201); settings: Compound concentration 10.0 uM, Protein concentration 2.0 uM
[27] = target: Bromodomain and PHD finger-containing protein 3 (Homo sapiens) (UniProt Q9ULD4); settings: Compound concentration 10.0 uM, Protein concentration 2.0 uM
[28] = target: Bromodomain and WD repeat-containing protein 1 (Homo sapiens) (UniProt Q9NSI6); settings: Compound concentration 10.0 uM, Protein concentration 2.0 uM
[29] = target: Bromodomain and WD repeat-containing protein 3 (Homo sapiens) (UniProt Q6RI45); settings: Compound concentration 10.0 uM, Protein concentration 2.0 uM
[30] = target: Chromatin remodeling regulator CECR2 (Homo sapiens) (UniProt Q9BXF3); settings: Compound concentration 10.0 uM, Protein concentration 2.0 uM
[31] = target: CREB-binding protein (Homo sapiens) (UniProt Q92793); settings: Compound concentration 10.0 uM, Protein concentration 2.0 uM
[32] = target: Histone acetyltransferase p300 (Homo sapiens) (UniProt Q09472); settings: Compound concentration 10.0 uM, Protein concentration 2.0 uM
[33] = target: Histone acetyltransferase KAT2A (Homo sapiens) (UniProt Q92830); settings: Compound concentration 10.0 uM, Protein concentration 2.0 uM
[34] = target: Histone acetyltransferase KAT2B (Homo sapiens) (UniProt Q92831); settings: Compound concentration 10.0 uM, Protein concentration 2.0 uM
[35] = target: Protein polybromo-1 (Homo sapiens) (UniProt Q86U86); settings: Compound concentration 10.0 uM, Protein concentration 2.0 uM
[36] = target: Protein polybromo-1 (Homo sapiens) (UniProt Q86U86); settings: Compound concentration 10.0 uM, Protein concentration 2.0 uM; remark: listed apart in the source
[37] = target: Protein polybromo-1 (Homo sapiens) (UniProt Q86U86); settings: Compound concentration 10.0 uM, Protein concentration 2.0 uM; remark: listed apart in the source
[38] = target: Protein polybromo-1 (Homo sapiens) (UniProt Q86U86); settings: Compound concentration 10.0 uM, Protein concentration 2.0 uM; remark: listed apart in the source
[39] = target: PH-interacting protein (Homo sapiens) (UniProt Q8WWQ0); settings: Compound concentration 10.0 uM, Protein concentration 2.0 uM
[40] = target: SWI/SNF-related matrix-associated actin-dependent regulator of chromatin subfamily A member 2 (Homo sapiens) (UniProt P51531); settings: Compound concentration 10.0 uM, Protein concentration 2.0 uM
[41] = target: SWI/SNF-related matrix-associated actin-dependent regulator of chromatin subfamily A member 4 (Homo sapiens) (UniProt P51532); settings: Compound concentration 10.0 uM, Protein concentration 2.0 uM
[42] = target: Nuclear body protein SP140 (Homo sapiens) (UniProt Q13342); settings: Compound concentration 10.0 uM, Protein concentration 2.0 uM
[43] = target: Nuclear body protein SP140-like protein (Homo sapiens) (UniProt Q9H930); settings: Compound concentration 10.0 uM, Protein concentration 2.0 uM
[44] = target: Transcription initiation factor TFIID subunit 1 (Homo sapiens) (UniProt P21675); settings: Compound concentration 10.0 uM, Protein concentration 2.0 uM
Transcription initiation factor TFIID subunit 1 (Homo sapiens), sequence (P21675 whole entry): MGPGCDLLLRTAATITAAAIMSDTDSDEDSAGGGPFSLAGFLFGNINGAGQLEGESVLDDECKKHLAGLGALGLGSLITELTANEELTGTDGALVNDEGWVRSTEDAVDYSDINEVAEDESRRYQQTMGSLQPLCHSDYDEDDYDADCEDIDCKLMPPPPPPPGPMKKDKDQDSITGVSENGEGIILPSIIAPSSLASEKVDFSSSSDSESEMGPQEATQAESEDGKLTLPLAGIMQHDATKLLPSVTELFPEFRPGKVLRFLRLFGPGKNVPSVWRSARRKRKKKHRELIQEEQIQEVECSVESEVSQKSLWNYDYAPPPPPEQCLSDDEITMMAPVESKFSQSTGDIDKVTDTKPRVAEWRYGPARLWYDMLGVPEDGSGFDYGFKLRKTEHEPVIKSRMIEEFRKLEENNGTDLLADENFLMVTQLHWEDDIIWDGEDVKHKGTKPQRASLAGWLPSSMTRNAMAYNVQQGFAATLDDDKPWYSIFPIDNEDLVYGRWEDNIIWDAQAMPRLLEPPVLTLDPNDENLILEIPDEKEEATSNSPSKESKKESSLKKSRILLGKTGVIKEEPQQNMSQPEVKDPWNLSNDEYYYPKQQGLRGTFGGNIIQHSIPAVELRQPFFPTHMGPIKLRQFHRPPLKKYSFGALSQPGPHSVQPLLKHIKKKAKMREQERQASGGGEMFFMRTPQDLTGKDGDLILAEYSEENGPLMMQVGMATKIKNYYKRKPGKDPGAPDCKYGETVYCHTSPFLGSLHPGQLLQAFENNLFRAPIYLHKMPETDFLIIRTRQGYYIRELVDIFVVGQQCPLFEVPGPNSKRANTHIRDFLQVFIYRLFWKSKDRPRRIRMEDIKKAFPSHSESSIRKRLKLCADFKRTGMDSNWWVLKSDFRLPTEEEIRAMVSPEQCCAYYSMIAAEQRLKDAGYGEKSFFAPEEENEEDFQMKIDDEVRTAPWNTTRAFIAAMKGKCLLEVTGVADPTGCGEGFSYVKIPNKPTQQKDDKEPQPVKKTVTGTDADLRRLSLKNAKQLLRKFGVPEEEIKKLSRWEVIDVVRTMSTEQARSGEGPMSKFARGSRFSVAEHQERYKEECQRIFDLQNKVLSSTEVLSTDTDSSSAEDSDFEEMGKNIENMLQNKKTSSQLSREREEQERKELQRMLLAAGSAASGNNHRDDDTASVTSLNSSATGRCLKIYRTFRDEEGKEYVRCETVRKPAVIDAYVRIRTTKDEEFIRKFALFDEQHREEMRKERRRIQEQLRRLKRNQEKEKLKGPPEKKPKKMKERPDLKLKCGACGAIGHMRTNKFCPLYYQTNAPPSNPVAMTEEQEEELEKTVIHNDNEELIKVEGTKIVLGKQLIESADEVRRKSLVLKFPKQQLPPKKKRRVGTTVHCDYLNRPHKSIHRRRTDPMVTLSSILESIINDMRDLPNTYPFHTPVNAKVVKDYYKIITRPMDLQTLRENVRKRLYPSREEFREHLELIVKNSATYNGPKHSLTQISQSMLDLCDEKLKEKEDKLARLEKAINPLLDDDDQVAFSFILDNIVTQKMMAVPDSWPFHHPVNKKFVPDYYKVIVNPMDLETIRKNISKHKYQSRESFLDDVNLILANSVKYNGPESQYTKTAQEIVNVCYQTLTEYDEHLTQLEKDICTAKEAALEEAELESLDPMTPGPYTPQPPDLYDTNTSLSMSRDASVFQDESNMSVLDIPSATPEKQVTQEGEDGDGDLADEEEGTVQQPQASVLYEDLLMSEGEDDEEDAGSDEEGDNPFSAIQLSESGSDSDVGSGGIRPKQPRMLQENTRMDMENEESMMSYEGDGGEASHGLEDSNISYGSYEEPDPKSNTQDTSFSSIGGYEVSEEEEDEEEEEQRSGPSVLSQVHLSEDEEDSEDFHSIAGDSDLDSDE

[45] = target: Transcription initiation factor TFIID subunit 1 (Homo sapiens) (UniProt P21675); settings: Compound concentration 10.0 uM, Protein concentration 2.0 uM; remark: listed apart in the source
[46] = target: Transcription initiation factor TFIID subunit 1-like (Homo sapiens) (UniProt Q8IZX4); settings: Compound concentration 10.0 uM, Protein concentration 2.0 uM
[47] = target: Transcription initiation factor TFIID subunit 1-like (Homo sapiens) (UniProt Q8IZX4); settings: Compound concentration 10.0 uM, Protein concentration 2.0 uM; remark: listed apart in the source
[48] = target: Transcription intermediary factor 1-alpha (Homo sapiens) (UniProt O15164); settings: Compound concentration 10.0 uM, Protein concentration 2.0 uM
[49] = target: Transcription intermediary factor 1-beta (Homo sapiens) (UniProt Q13263); settings: Compound concentration 10.0 uM, Protein concentration 2.0 uM
Peregrin (Homo sapiens) [50] = target: Peregrin (Homo sapiens) (UniProt P55201); settings: Compound concentration 10.0 uM, Protein concentration 2.0 uM; remark: listed apart in the source

`COc1ccc(CCc2nc3cc(-c4c(C)noc4C)ccc3n2C[C@H](C)N2CCOCC2)cc1Cl` was tested, and the pIC50 [1] was 4.56 and 5.15, the inhibition [2] was 24% and the ΔTm [3] was 1.83 °C. For the same molecule, the ΔTm [4] was 9.68 °C, the ΔTm [5] was 0.03 °C and the ΔTm [6] was 0.23 °C. For the same molecule, the ΔTm [7] was 0.82 °C, the inhibition [8] was 24.4% and the inhibition [9] was 58.8%. For the same molecule, the inhibition [10] was 35.5% and 42.4%, the ΔTm [11] was -0.29 °C and the ΔTm [12] was -2.5 °C. The ΔTm [13] was 0.45 °C, the ΔTm [14] was -0.45 °C and the ΔTm [15] was -0.18 °C. The ΔTm [16] was 0.17 °C, the ΔTm [17] was 0.21 °C and -1.05 °C and the ΔTm [18] was 0.43 °C and 0.36 °C. For the same molecule, the ΔTm [19] was 0.99 °C, the ΔTm [20] was 1.41 °C and the ΔTm [21] was 1.25 °C. For the same molecule, the ΔTm [22] was 0.56 °C, the ΔTm [23] was -0.12 °C and -0.5 °C and the ΔTm [24] was 0.66 °C. For the same molecule, the ΔTm [25] was 0.37 °C, the ΔTm (Peregrin (Homo sapiens) [26]) was 1.46 °C and the ΔTm [27] was 0.46 °C. The ΔTm [28] was 0.96 °C, the ΔTm [29] was 0.97 °C and the ΔTm [30] was 0.18 °C and 1.55 °C. The ΔTm [31] was 10.2 °C and 9.55 °C, the ΔTm [32] was 10.2 °C and the ΔTm [33] was 0.17 °C. The ΔTm [34] was 0.46 °C, the ΔTm [35] was 0.46 °C and the ΔTm [36] was 0.23 °C. For the same molecule, the ΔTm [37] was 0.12 °C, the ΔTm [38] was 0.46 °C and -0.03 °C and the ΔTm [39] was 0.57 °C. The ΔTm [40] was 0.06 °C, the ΔTm [41] was 0.34 °C and the ΔTm [42] was 0.37 °C. For the same molecule, the ΔTm [43] was 0.17 °C, the ΔTm [44] was -0.12 °C and the ΔTm [45] was 0.26 °C and 0.07 °C. The ΔTm [46] was -0.06 °C, the ΔTm [47] was 1.11 °C and the ΔTm [48] was 0.67 °C. For the same molecule, the ΔTm [49] was 0.49 °C and -0.34 °C and the ΔTm (Peregrin (Homo sapiens) [50]) was 0.42 °C.
